A short description of data set [1]: Protein binding in plasma of parkinson's disease patients. The following applies: human, read-out: PPB. The format is ADME, cell-free.
Data set [2] is described as follows: Total plasma concentration in parkinson's disease patients. It counts as ADME, cell-free. To be noted: human.
The species entered for data set [3] is Homo sapiens. The data set can be described thus: Chaperone activity at GALNS p.R386C/p.F285 deletion mutant in mucopolysaccharidosis IVA patient-derived fibroblasts GM00593 assessed as reduction in lysosomal mass by measuring mean fluorescence intensity at 1 uM incubated for 36 hrs by deep red Lysotracker based flow cytometric analysis (reference value: 61.8 +/- 8.4%). Also noted: scale not given: the % may be the effect or the level left. A general note: Flow cytometry measures light scatter and fluorescence of single cells or particles in a stream.

For data set [4], the species on record is Homo sapiens. The data set can be described thus: Chaperone activity at GALNS p.R61W/p.W405_T406 deletion mutant in mucopolysaccharidosis IVA patient-derived fibroblasts GM01361 assessed as reduction in lysosomal mass by measuring mean fluorescence intensity at 0.01 uM incubated for 36 hrs by deep red Lysotracker based flow cytometric analysis (reference value: 48.3 +/- 7.7%). Also noted: scale not given: the % may be the effect or the level left.

The species named for data set [5] is Homo sapiens. The data set can be described thus: Chaperone activity at GALNS p.R61W/p.W405_T406 deletion mutant in mucopolysaccharidosis IVA patient-derived fibroblasts GM01361 assessed as enzyme activity using 4MUGPS as substrate at 1 to 10 uM incubated for 48 hrs by fluorescence assay.
Data set [6] is filed under the species Homo sapiens. The data set can be described thus: Chaperone activity at GALNS p.R61W/p.W405_T406 deletion mutant in mucopolysaccharidosis patient-derived fibroblasts GM01361 assessed as reduction in lysosomal mass by measuring mean fluorescence intensity at 0.1 uM incubated for 36 hrs by deep red Lysotracker based flow cytometric analysis (reference value: 48.3 +/- 7.7%). Also noted: scale not given: the % may be the effect or the level left.

Data set [7] is filed under the species Homo sapiens. Nature of the data set: Chaperone activity at GALNS p.R386C/p.F285 deletion mutant in mucopolysaccharidosis IVA patient-derived fibroblasts GM00593 assessed as fold increase in enzyme activity using 4MUGPS as substrate at 10 uM incubated for 48 hrs by fluorescence assay relative to control.
The species named for data set [8] is Homo sapiens. The data set can be described thus: Chaperone activity at GALNS p.R386C/p.F285 deletion mutant in mucopolysaccharidosis IVA patient-derived fibroblasts GM00593 assessed as reduction in lysosomal mass by measuring mean fluorescence intensity at 10 uM incubated for 36 hrs by deep red Lysotracker based flow cytometric analysis (reference value: 61.8 +/- 8.4%). Also on record: scale not given: the % may be the effect or the level left.

The target in data set [9] is T1, N-acetylgalactosamine-6-sulfatase (Homo sapiens) (UniProt P34059).
T1 sequence (whole entry): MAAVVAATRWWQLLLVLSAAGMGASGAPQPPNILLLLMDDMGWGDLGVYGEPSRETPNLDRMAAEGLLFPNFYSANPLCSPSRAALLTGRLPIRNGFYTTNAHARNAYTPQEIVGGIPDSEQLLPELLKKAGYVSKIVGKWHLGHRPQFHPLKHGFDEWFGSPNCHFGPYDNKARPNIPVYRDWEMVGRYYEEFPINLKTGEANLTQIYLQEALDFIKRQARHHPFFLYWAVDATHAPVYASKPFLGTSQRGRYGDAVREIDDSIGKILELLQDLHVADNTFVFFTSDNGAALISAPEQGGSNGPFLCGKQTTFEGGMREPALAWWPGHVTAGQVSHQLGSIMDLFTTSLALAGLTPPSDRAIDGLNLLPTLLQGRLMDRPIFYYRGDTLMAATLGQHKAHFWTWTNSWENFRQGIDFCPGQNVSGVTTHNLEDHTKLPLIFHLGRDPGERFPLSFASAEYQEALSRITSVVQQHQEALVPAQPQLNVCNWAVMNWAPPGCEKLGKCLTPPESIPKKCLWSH
The data set can be described thus: Chaperone activity at GALNS in human fibroblasts assessed as change in lysosomal mass at 0.01 to 10 uM incubated for 36 hrs by deep red Lysotracker based flow cytometric analysis.

Data set [10] is filed under the species Homo sapiens. The data set can be described thus: Chaperone activity at GALNS p.A393S mutant in mucopolysaccharidosis IVA patient-derived fibroblasts GM00958 assessed as enzyme activity using 4MUGPS as substrate at 0.001 to 10 uM incubated for 48 hrs by fluorescence assay.
Data set [11] has as its target T1, N-acetylgalactosamine-6-sulfatase (Homo sapiens). Nature of the data set: Chaperone activity at recombinant human GALNS expressed in HEK293 cells assessed as fold increase in extracellular enzyme activity using 4MUGPS as substrate at 1 uM incubated for 48 hrs by fluorescence assay relative to control. The format is cell-based.
The target is the same in data set [12]. Nature of the data set: Inhibition of recombinant human GALNS expressed in Pichia pastoris at 0.001 to 50 uM using 4MUGPS as substrate incubated for 18 hrs by fluorescence assay relative to control.
Data set [13] has the same target. Nature of the data set: Chaperone activity at recombinant human GALNS expressed in HEK293 cells assessed as fold increase in extracellular enzyme activity using 4MUGPS as substrate at 10 uM incubated for 48 hrs by fluorescence assay relative to control. The format is cell-based.
Data set [14] is filed under the species Homo sapiens. Nature of the data set: Chaperone activity at GALNS p.R61W/p.W405_T406 deletion mutant in mucopolysaccharidosis IVA patient-derived fibroblasts GM01361 assessed as fold increase in enzyme activity using 4MUGPS as substrate at 0.1 uM incubated for 48 hrs by fluorescence assay relative to control.

Calls of active or inactive are those of the source. No cut-off for these calls is given here.

The inhibition is the share of the control response that was lost under treatment. Turning to `CC(C)C[C@H]1C(=O)N2CCC[C@H]2[C@]2(O)O[C@](NC(=O)[C@@H]3C=C4c5cccc6[nH]c(Br)c(c56)C[C@H]4N(C)C3)(C(C)C)C(=O)N12` [BROMOCRIPTINE], the fraction unbound in [1] lay within 0.04 to 0.1. For the same compound, the concentration in data set [2] lay in the range of 10 to 250 nM. The Activity was 18.2% in the data set listed under Homo sapiens [3], 11.7% in the data set listed under Homo sapiens [4], 7.3% in the data set filed under Homo sapiens [6] and 10.5% in the data set filed under Homo sapiens [8]. For the same compound, the result (in the data set filed under Homo sapiens [5]; in [9]; in the data set listed under Homo sapiens [10]) was inactive. Further, the fold change (FC) amounted to 1.52 in the data set listed under Homo sapiens [7], 1.36 in [11], 1.48 in data set [13] and 1.5 in the data set filed under Homo sapiens [14]. For the same compound, the inhibition in data set [12] stood at 30%.
